Like-named read-outs stand apart in the source and are kept apart here.
Experiments:
[1] = Solubility in aqueous solutions
Source text: Therefore, two different approaches for modifying the sPPp conjugate were investigated to improve its in vivo targetability.

[2] = test system: A-431 human tumor xenografts; test: Preliminary tumor growth delay studies after phototherapy (Example 3, FIG. 3); type: in vivo, mice
Description: Mice were implanted with A-431 tumor xenografts and were administered phototherapy when their tumor sizes reached approximately 150 mm^3. Tumors were then regularly measured to determine the time it took for the tumors to reach four times their initial treatment size. To allow for easier comparisons, tumor growth delay data sets have been aligned so that the 0-day time point corresponds to a tumor volume of 150 mm^3. Diamond, control mice (no PPa or sPPp conjugate; no light), lumped data set, n=6. Squares, mice treated with 60 nmoles surfactant-solubilized free PPa in 2% ethanol/1% TWEEN 80/PBS for a ˜16 hour incubation and treated with 100 J/(cm*cm) light, n=4. Triangles, mice treated with 60 nmoles partially PEG2(20 kDa)ylated (˜63 molar %) sPPp conjugate in PBS for a ˜16 hour incubation and treated with 500 J/(cm*cm) light, n=3.
Preliminary tumor growth delay studies comparing the in vivo phototherapeutic effects of the partially PEG2(20 kDa)ylated sPPp conjugate to the gold standard surfactant-solubilized free PPa solution are shown in FIG. 3. A-431 human tumor xenografts were grown in mice as previously described, and when tumors reached ˜150 mm^3, mice were injected via the tail vein or retro-orbitally with 60 to 80 nmoles PPa content in a bolus volume of approximately 200 microliters. Sixteen hours post-injection, the entire tumor surface along with a 1-2 mm margin of skin around the tumor edge was uniformly irradiated with the expanded beam of a 670 nm laser at an incident fluence rate of ˜50 mW/cm^2. Six mice that received no injections and no irradiations served as a control group. Tumor growth delays resulting from the tumoricidal effects of the phototherapeutic treatments were determined with respect to the control group. For control mice, it took roughly 8.1 days for tumors to quadruple in size from 150 mm^3 to 600 mm^3, and for mice treated with 60 nmoles surfactant-solubilized free PPa and 100 J/cm^2 light, it took only slightly longer, 12.6±2.4 days (i.e., a tumor growth delay of ˜4.5 days compared to the control group). […]

[3] = test system: EGFR-overexpressing A-431 tumor xenograft; test: Tumor growth delay photodynamic therapy (PDT) studies, single and repeat treatment (Example 4, FIGS. 4 and 5); type: in vivo, athymic NCr nu/nu mice; settings: single PDT, 60 nmole PPa content per 20 g, 100 J/cm^2 at ~16 hours post-injection
Description: All formulations were administered at a dosage equivalent to 60 nmole PPa content per 20 gram body weight in a 200 μl bolus injection via the tail vein (or via retro-orbital injection when tail vein injections were not feasible). A 670 nm diode laser light dose of 100 J/cm^2, delivered at ˜50 mW/cm^2, was given at ˜16 hours post-injection over an area covering the entire tumor surface as well as a 2 to 3 mm border extending beyond the edge of the tumor. The tumor model was the EGFR-overexpressing A-431 tumor xenograft grown in athymic NCr nu/nu mice (5-week old mice from the National Cancer Institute at Frederick, Md.). Data series were plotted so that the time at which each tumor reached ˜150 mm^3 corresponds to 0 days; i.e., the approximate time at which the PDT light dose was administered.
Control experiments were also performed, which included injecting mice with the sPPp formulations but not exposing them to light.

[4] = test system: A-431 human epidermoid carcinoma tumor xenografts; test: Time-coursed fluorescence imaging in tumor xenograft model with ROI analysis; type: in vivo, athymic nude mice
Description: ROI measurements were done using ImageJ software (Rasband 1997-2007). For FIGS. 2A and 2B, image exposure times were 0.65 seconds, whereas image exposure times in FIG. 2C were 4 seconds in order to compensate for the smaller injected dosage of PPa content.
To assess the in vivo delivery characteristics of sPPp conjugate formulations, time-coursed fluorescence imaging studies were performed in a tumor xenograft model grown in athymic nude mice. Tumor xenografts were grown subcutaneously in the left upper chest region using the A-431 human epidermoid carcinoma cell line (American Type Culture Collection, Manassas, Va.), which is ideal for EGFR-targeting studies given that these cells overexpress ˜1×10^6-2.6×10^6 EGFR/cell (Haigler, et al. (1978) Proc. Natl. Acad. Sci. USA 75:3317-21; Mendelsohn (1997) Clin. Cancer Res. 3:2703-7). When tumor sizes reached greater than ˜100 mm^3, mice were imaged pre-injection, and then free PPa or sPPp conjugate formulations that had been sterile filtered through a 0.2 micron membrane were injected via tail vein or retro-orbitally at dosages ranging from ˜10 to ˜80 nmoles PPa content per mouse (mice weighed ˜20 g) in a single bolus volume of approximately 200 microliters. A series of post-injection images were then taken over a period of time until mouse fluorescence levels approached pre-injection baseline levels. Images were acquired of the ventral surface of the animals using a custom built surface-weighted fluorescence imager with a 670 nm laser for excitation and a 685 nm long-pass emission filter for detection (Pogue, et al. (2004) Technol. Cancer Res. Treat. 3:15-21). […]
As a quantitative measure of the tumor contrast generated by the surfactant-solubilized free PPa solution and the different sPPp conjugate formulations, region of interest (ROI) mean pixel values of the tumor area and control adjacent chest area were measured from the imaging data sets.

[5] = 60 nmoles, 100 J/cm^2 light, 16 hours post-injection

| Compound | solubility in aqueous solutions [1] | time for tumors to quadruple in size from 150 mm^3 to 600 mm^3 [2, 5] [days] | tumor growth delay compared to the control group [2, 5] [days] | lethality ([2]; irradiations performed immediately after injection) | delay in tumor growth compared to untreated control mice [3] | solubility in aqueous solutions ([1]; aqueous solutions) | peak tumor area to adjacent chest area mean pixel value ratio (tumor contrast) ([4]; 60 nmoles PPa in 2% ethanol/1% TWEEN 80/PBS, at ~16 hours post-injection, FIG. 2A) | clearance from the circulation ([4]; A-431 tumor-bearing mice, single bolus injection, fluorescence imaging) | tumor fluorescence at time of peak tumor contrast ([4]; FIG. 2) |
| --- | --- | --- | --- | --- | --- | --- | --- | --- | --- |
| C=CC1=C(C)c2cc3[nH]c(c4c5nc(cc6[nH]c(cc1n2)c(C)c6CC)C(C)=C5C(=O)C4)C(CCC(=O)NC(CC(=O)O)C(=O)NCCCCC(N)C(=O)NCCOCCOCCOCCOCCOCCOCCOCCOCCOCCOCCOCCOCCC(=O)NCCOCCOCCOCCOCCOCCOCCOCCOCCOCCOCCOCCOCCC(N)=O)C3C (stereo not drawn) [sPPp] | highly soluble and readily dissolved in aqueous solutions |  |  |  |  |  |  |  |  |
| pyropheophorbide-a [free PPa] |  | 12.6 ± 2.4 | ~4.5 | very high incidence of lethality | no significant delay in tumor growth | required potentially harmful solubilizers to prevent the formation of large insoluble aggregates | ~1.5 | cleared very rapidly from the circulation via the hepatobiliary system | already approaching pre-injection fluorescence levels |
